Results reported in patent publication US10160729B2, “Hsp70 modulators and methods for making and using the same” (Memorial Sloan Kettering Cancer Center, priority 2014, dated 2018).

System: MOLM-13 cells
Experiment: Caspase cleavage assay (Caspase3, 7 activation)
Assay type: cell-based
Conditions: Homo sapiens, 16 h treatment, caspase substrate Z-DEVD-R110, read-out: c* Concentration at which 50% of the maximum signal was achieved (caspase activation)
Experimental: Caspase3, 7 Activation. MOLM-13 cells (30,000 cells/well) were plated in black 96-well plates (Corning Cat. #3603) in 40 μL of RPMI media, and left in an incubator (37° C., 5% CO2) for up to 24 h. Cells were treated for 16 h with compounds or DMSO (control) at desired concentrations in 50 μL of media. Drugs were added in triplicate wells. Following exposure of cells to Hsp70 inhibitors, 50 μL of buffer containing 10 mM HEPES (pH 7.5), 2 mM EDTA, 0.1% CHAPS and the caspase substrate Z-DEVD-R110 at 25 μM was added to each well. Plates were incubated until the signal stabilized and then the fluorescence signal of each well was measured in an Analyst GT microplate reader. The percentage increase in apoptotic cells was calculated by comparison of the fluorescence reading obtained from treated versus control cells.

Compound	EC50
CN1CCN(c2ncc(Sc3ccc(N)nc3)c(OCc3ccc(F)c(Cl)c3)n2)CC1 [compound 154, 5-((4-((3-Chloro-4-fluorobenzyl)oxy)-2-(4-methylpiperazin-1-yl)pyrimidin-5-yl)thio)pyridin-2-amine]	< 200 nM
NC(=O)c1ccc(Sc2cnc(N3CCN(CC#CCO)CC3)nc2OCc2cccc(Cl)c2)cc1 [compound 379, 4-((4-((3-Chlorobenzyl)oxy)-2-(4-(4-hydroxybut-2-yn-1-yl)piperazin-1-yl)pyrimidin-5-yl)thio)benzamide]	< 200 nM
CN(C)[C@@H]1CCN(c2ncc(Sc3ccc(C(N)=O)cc3)c(OCc3cccc(I)c3)n2)C1 [compound 369, (R)-4-((2-(3-(Dimethylamino)pyrrolidin-1-yl)-4-((3-iodobenzyl)oxy)pyrimidin-5-yl)thio)benzamide]	200 to 400 nM
CN1CCN(c2ncc(Sc3ccc(N)cc3)c(OCc3ccccc3)n2)CC1 [compound 10, 4-(4-(Benzyloxy)-2-(4-methylpiperazin-1-yl)pyrimidin-5-ylthio)aniline]	400 to 1000 nM
Cc1cccc(COc2nc(N3CCN(C)CC3)ncc2Sc2ccc(C(N)=O)c(C(F)(F)F)c2)c1 [compound 329, 4-((4-((3-Methylbenzyl)oxy)-2-(4-methylpiperazin-1-yl)pyrimidin-5-yl)thio)-2-(trifluoromethyl)benzamide]	400 to 1000 nM
CN1CCN(c2ncc(Sc3ccc(C(N)=O)c(Cl)c3)c(OCc3ccc(F)c(O)c3)n2)CC1 [compound 127, 2-Chloro-4-((4-((4-fluoro-3-hydroxybenzyl)oxy)-2-(4-methylpiperazin-1-yl)pyrimidin-5-yl)thio)benzamide]	400 to 1000 nM
COc1cccc(COc2nc(N3CCCN(C)CC3)ncc2Sc2ccc(C(N)=O)cc2)c1 [190h]	≥ 1200 nM
CN1CCN(c2ncc(Sc3ccc(C(N)=O)c(Cl)c3)c(OCc3ccc(F)c(C(F)(F)F)c3)n2)CC1 [compound 115, 2-Chloro-4-((4-((4-fluoro-3-(trifluoromethyl)benzyl)oxy)-2-(4-methylpiperazin-1-yl)pyrimidin-5-yl)thio)benzamide]	200 to 400 nM
COc1cc(COc2nc(N3CCN(C)CC3)ncc2Sc2ccc(N)nc2)ccc1F [compound 151, 5-((4-((4-Fluoro-3-methoxybenzyl)oxy)-2-(4-methylpiperazin-1-yl)pyrimidin-5-yl)thio)pyridin-2-amine]	< 200 nM
CN(C)[C@@H]1CCN(c2ncc(Sc3ccc(C(N)=O)cc3)c(OCc3cccc(Br)c3)n2)C1 [compound 367, (R)-4-((4-((3-Bromobenzyl)oxy)-2-(3-(dimethylamino)pyrrolidin-1-yl)pyrimidin-5-yl)thio)benzamide]	200 to 400 nM
CN1CCN(c2ncc(Sc3ccc(C(N)=O)c(C(F)(F)F)c3)c(NCc3cccc(Cl)c3)n2)CC1 [compound 141, 4-((4-((3-Chlorobenzyl)amino)-2-(4-methylpiperazin-1-yl)pyrimidin-5-yl)thio)-2-(trifluoromethyl)benzamide]	1000 to 1200 nM
CN1CCN(c2ncc(Sc3cccnc3N)c(OCc3ccccc3)n2)CC1 [compound 13, 3-((4-(Benzyloxy)-2-(4-methylpiperazin-1-yl)pyrimidin-5-yl)thio)pyridin-2-amine]	400 to 1000 nM
COc1cc(COc2nc(N3CC[C@@H](N)C3)ncc2Sc2ccc(C(N)=O)c(Cl)c2)ccc1F [compound 213, (R)-4-((2-(3-Aminopyrrolidin-1-yl)-4-((4-fluoro-3-methoxybenzyl)oxy)pyrimidin-5-yl)thio)-2-chlorobenzamide]	≥ 1200 nM
CN1CCN(c2ncc(Sc3ccc(C(N)=O)c(C(F)(F)F)c3)c(OCc3ccc(F)c(Cl)c3)n2)CC1 [compound 132, 4-((4-((3-Chloro-4-fluorobenzyl)oxy)-2-(4-methylpiperazin-1-yl)pyrimidin-5-yl)thio)-2-(trifluoromethyl)benzamide]	< 200 nM
COc1cc(COc2nc(N3CC[C@@H](N(C)C)C3)ncc2Sc2ccc(C(N)=O)cc2)ccc1F [compound 208, (R)-4-((2-(3-(Dimethylamino)pyrrolidin-1-yl)-4-((4-fluoro-3-methoxybenzyl)oxy)pyrimidin-5-yl)thio)benzamide]	< 200 nM
C#CC(C)N1CCN(c2ncc(Sc3ccc(C(N)=O)cc3)c(OCc3cccc(OC)c3)n2)CC1 (stereo not drawn) [190n, 4-((2-(4-(But-3-yn-2-yl)piperazin-1-yl)-4-((3-methoxybenzyl)oxy)pyrimidin-5-yl)thio)benzamide]	200 to 400 nM
CN1CCN(c2ncc(Sc3ccc(C(N)=O)c(Cl)c3)c(OCc3cccc(N(C)C)c3)n2)CC1 [compound 116, 2-Chloro-4-((4-((3-(dimethylamino)benzyl)oxy)-2-(4-methylpiperazin-1-yl)pyrimidin-5-yl)thio)benzamide]	< 200 nM
C#CCCCCN1CCN(c2ncc(Sc3ccc(C(N)=O)cc3)c(OCc3cccc(OC)c3)n2)CC1 [190j, 4-((2-(4-(Hex-5-yn-1-yl)piperazin-1-yl)-4-((3-methoxybenzyl)oxy)pyrimidin-5-yl)thio)benzamide]	< 200 nM
COc1ccc(Sc2cnc(N3CCN(C)CC3)nc2OCc2ccccc2)cc1N [compound 11, 5-((4-(Benzyloxy)-2-(4-methylpiperazin-1-yl)pyrimidin-5-yl)thio)-2-methoxyaniline]	200 to 400 nM
CN1CCN(c2ncc(Sc3ccc(C(N)=O)c(C(F)(F)F)c3)c(OCc3cccc(N(C)C)c3)n2)CC1=O [compound 345, 4-((4-((3-(Dimethylamino)benzyl)oxy)-2-(4-methyl-3-oxopiperazin-1-yl)pyrimidin-5-yl)thio)-2-(trifluoromethyl)benzamide]	1000 to 1200 nM
C#CCCCCN1CCN(c2ncc(Sc3ccc(C(N)=O)c(C(F)(F)F)c3)c(OCc3cccc(Cl)c3)n2)CC1 [compound 226, 4-((4-((3-Chlorobenzyl)oxy)-2-(4-(hex-5-yn-1-yl)piperazin-1-yl)pyrimidin-5-yl)thio)-2-(trifluoromethyl)benzamide]	200 to 400 nM
COc1cccc(COc2nc(N(C)CCN(C)C)ncc2Sc2ccc(C(N)=O)cc2)c1 [190g, 4-((2-((2-(Dimethylamino)ethyl)(methyl)amino)-4-((3-methoxybenzyl)oxy)pyrimidin-5-yl)thio)benzamide]	≥ 1200 nM
CN1CCN(c2ncc(Oc3ccc(C(N)=O)cc3)c(OCc3ccccc3)n2)CC1 [compound 282, 4-((4-(Benzyloxy)-2-(4-methylpiperazin-1-yl)pyrimidin-5-yl)oxy)benzamide]	≥ 1200 nM
COc1cccc(COc2nc(N3CCN(CC4CC4)CC3)ncc2Sc2ccc(C(N)=O)cc2)c1 [190q, 4-((2-(4-(Cyclopropylmethyl)piperazin-1-yl)-4-((3-methoxybenzyl)oxy)pyrimidin-5-yl)thio)benzamide]	< 200 nM
CN(C)c1cccc(COc2nc(N3CCN(CCO)CC3)ncc2Sc2ccc(C(N)=O)cc2)c1 [185d, 4-((4-((3-(Dimethylamino)benzyl)oxy)-2-(4-(2-hydroxyethyl)piperazin-1-yl)pyrimidin-5-yl)thio)benzamide]	400 to 1000 nM
CC(Oc1nc(N2CCN(C)CC2)ncc1Sc1ccc(C(N)=O)cc1)c1cccc(N(C)C)c1 (stereo not drawn) [100d, 4-((4-(1-(3-(Dimethylamino)phenyl)ethoxy)-2-(4-methylpiperazin-1-yl)pyrimidin-5-yl)thio)benzamide]	≥ 1200 nM
CC(=O)N1CCN(c2ncc(Sc3ccc(C(N)=O)cc3)c(OCc3ccccc3)n2)CC1 [compound 168, 4-((2-(4-Acetylpiperazin-1-yl)-4-(benzyloxy)pyrimidin-5-yl)thio)benzamide]	≥ 1200 nM
